Positions of bridges follow the written chain, without caps; N, C: chain ends. Non-standard residues stand in square brackets, D forms with d. Residues, ends and D or L forms follow the SMILES beside them. *: point of attachment. DOTA = O=C(O)CN1CCN(CC(=O)O)CCN(CC(=O)*)CCN(CC(=O)O)CC1; dPhe(4-NHCONH2) = NC(=O)Nc1ccc(C[C@@H](N)C(=O)O)cc1; Butanoyl(4-(4-MeO-phenyl)) = COc1ccc(CCCC(=O)*)cc1; Butanoyl(4-(4-I-phenyl)) = O=C(CCCc1ccc(I)cc1)*; Dihydroorotyl(S) = O=C1C[C@@H](C(=O)*)NC(=O)N1; Phe(4-Cl) = N[C@@H](Cc1ccc(Cl)cc1)C(=O)O; Phe(4-NH2) = Nc1ccc(C[C@H](N)C(=O)O)cc1
Key:
[1] = target: T1, SSTR2 receptor (U2OS-SSTR2 cells) (Homo sapiens, UniProt P30874); assay: Competitive binding assay against [^177Lu]Lu-JR11; details: radioligand [^177Lu]Lu-JR11 10^−9 M, unlabeled compound 10^−12 to 10^−5 M, 90 min, 37 °C, triplicate
T1 construct: expressed in transfected cells; host or cells: U2OS human osteosarcoma cells stably expressing SSTR2
T1 sequence (P30874 whole entry): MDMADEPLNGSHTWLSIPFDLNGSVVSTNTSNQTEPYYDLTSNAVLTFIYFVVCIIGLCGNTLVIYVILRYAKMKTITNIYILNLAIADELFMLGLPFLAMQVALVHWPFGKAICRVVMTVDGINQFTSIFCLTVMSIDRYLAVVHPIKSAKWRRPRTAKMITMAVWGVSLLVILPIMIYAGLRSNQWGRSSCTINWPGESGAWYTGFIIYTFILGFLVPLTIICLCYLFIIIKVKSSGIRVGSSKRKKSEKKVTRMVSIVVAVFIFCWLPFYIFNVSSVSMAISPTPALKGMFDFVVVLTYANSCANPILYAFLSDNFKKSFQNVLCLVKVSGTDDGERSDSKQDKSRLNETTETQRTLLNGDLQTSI
Method: Human osteosarcoma cells (U2OS) stably expressing the SSTR2 receptor were used in all in vitro cell assays. Cells were cultured in Dulbecco’s modified Eagle’s medium (DMEM) from Gibco (Paisley, UK) supplemented with 2 mM L-glutamine, 10% fetal bovine serum (FBS), 50 units/mL penicillin, and 50 μg/mL streptomycin (Sigma Aldrich; Haarlerbergweg, The Netherlands) and maintained at 37 °C and in a 5% CO2 humidified chamber. Passages were performed weekly using trypsin/EDTA (0.05%/0.02% w/v).
Competitive binding experiments against [^177Lu]Lu-JR11 were performed with 8a and 8b in U2OS-SSTR2 cells. Cells were seeded in a 24-well plate 24 h in advance (2 × 10^5 cells/well). On the day of the experiment, medium was removed, and the cells were washed once with PBS (Gibco). Then, solutions containing unlabeled compound 8a or 8b in increasing concentrations (10^−12 to 10^−5 M) in internalization medium (DMEM media, 20 mM HEPES, 1% BSA, pH 7.4) were added, followed by the addition of [^177Lu]Lu-JR11 (10^−9 M). For each concentration, experiments were performed in triplicate. Cells were incubated at 37 °C for 90 min. After incubation, medium was removed, and cells were washed once with PBS and lysed with 0.5 M sodium hydroxide (NaOH) for 10 min at rt. The lysate was transferred to counting tubes, and measurement was performed using the γ-counter.

Stability in PBS = assay type: physicochemical; details: % intact radiolabeled ligand, ~3 MBq in PBS (300 μL), 37 °C, radio-HPLC, n = 1
Method: (§1) The ^177Lu-labeled compounds (~3 MBq) were incubated in PBS (300 μL) at 37 °C. The stability of the radiolabeled peptides was verified by radio-HPLC at 1, 4, and 24 h. The stability in serum was determined by incubating the radiolabeled compounds (~3 MBq) into 150 μL of mouse serum (Merck; Haarlerbergweg, The Netherlands) at 37 °C. At 1, 4, and 24 h post-incubation, the proteins were precipitated by adding an aliquot of 35 μL of the mixture to an equal volume of ACN. The vial was vortexed and centrifuged for 20 min. stability was monitored by radio-HPLC (Figures S4 and S5).

human albumin = human albumin (Homo sapiens, UniProt P02768); assay: Albumin binding properties (ultrafiltration); details: ~1 MBq in human albumin/PBS (500 µL, v:v = 1:4), 1 h, 37 °C; Centrifree ultrafiltration 30 KDa; gamma counter; n = 3, mean ± SEM
Sequence of human albumin (P02768 25-609): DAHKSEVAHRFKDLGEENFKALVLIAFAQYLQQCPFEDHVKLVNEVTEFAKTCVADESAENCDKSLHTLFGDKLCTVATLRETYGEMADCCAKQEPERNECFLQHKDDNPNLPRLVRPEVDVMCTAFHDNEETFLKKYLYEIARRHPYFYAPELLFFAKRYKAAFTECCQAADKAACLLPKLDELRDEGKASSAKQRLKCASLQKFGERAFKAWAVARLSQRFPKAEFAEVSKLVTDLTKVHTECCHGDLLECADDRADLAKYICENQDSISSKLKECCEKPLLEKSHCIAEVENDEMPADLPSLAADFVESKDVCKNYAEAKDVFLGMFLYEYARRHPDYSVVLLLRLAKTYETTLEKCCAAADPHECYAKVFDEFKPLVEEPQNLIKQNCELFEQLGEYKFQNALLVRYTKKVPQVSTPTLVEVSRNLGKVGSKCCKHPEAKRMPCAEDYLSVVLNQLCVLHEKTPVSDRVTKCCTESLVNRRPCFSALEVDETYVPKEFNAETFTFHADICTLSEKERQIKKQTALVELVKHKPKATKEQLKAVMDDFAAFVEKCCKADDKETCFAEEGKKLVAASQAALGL

Stability in mouse serum = assay type: in vitro ADME; details: % intact radiolabeled ligand, ~3 MBq in 150 μL mouse serum, 37 °C, ACN protein precipitation, radio-HPLC, n = 1
Method: as §1

[2] = Determination of lipophilicity (LogD7.4, shake-flask); assay type: physicochemical; details: n-octanol/PBS (1:1), pH 7.4, PBS/n-octanol 1:1 (1 mL), ~1.5 MBq, gamma counter, n = 3 (triplicate), mean ± SEM, read-out: Log D7.4
Method: The distribution coefficient (LogD7.4) of the ^177Lu-labeled peptides was determined by the shake-flask method. For each radioligand, the experiment was performed in triplicate. The radiolabeled compound (~1.5 MBq) was added to a solution of phosphate buffered saline (PBS)/n-octanol (1 mL, v:v = 1:1) in eppendorf vials. The vials were vortexed vigorously and centrifuged at 10,000 rpm for 3 min. The n-octanol phase was separated from the aqueous phase, poured into new vials, and centrifuged for 15 min. Samples from each phase (10 μL) were measured using a gamma counter. The LogD7.4 value was calculated using the following equation: […].

In vivo SPECT/CT imaging = details: mouse, H69 xenograft tumor, iv, 20 MBq/0.5 nmol per animal, total radioactivity
[3] = test system: mice bearing SSTR2-positive H69 xenografts; assay: In vivo SPECT/CT imaging; details: H69 xenograft mice, i.v. 20 MBq/0.5 nmol, n = 4

## C[C@@H](O)[C@@H]1NC(=O)[C@H](CCCCN)NC(=O)[C@@H](Cc2ccc(NC(N)=O)cc2)NC(=O)[C@H](Cc2ccc(NC(=O)[C@@H]3CC(=O)NC(=O)N3)cc2)NC(=O)[C@H](NC(=O)[C@H](Cc2ccc(Cl)cc2)NC(=O)CN2CCN(CC(=O)O)CCN(CC(=O)O)CCN(CC(=O)O)CC2)CSSC[C@@H](C(=O)N[C@H](Cc2ccc(O)cc2)C(N)=O)NC1=O [JR11, reference compound] ({DOTA}-[Phe(4-Cl)][dC][Phe(4-NH2)](Dihydroorotyl(S))[dPhe(4-NHCONH2)]KTC[dY]-NH2; disulfide 2-7)
[1]
  IC50: 2.7 ± 0.26 nM

## C[C@@H](O)[C@@H]1NC(=O)[C@H](CCCCN)NC(=O)[C@@H](Cc2ccc(NC(N)=O)cc2)NC(=O)[C@H](Cc2ccc(NC(=O)[C@@H]3CC(=O)NC(=O)N3)cc2)NC(=O)[C@H](NC(=O)[C@H](Cc2ccc(Cl)cc2)NC(=O)[C@H](CCCCNC(=O)CCCc2ccc(I)cc2)NC(=O)CN2CCN(CC(=O)O)CCN(CC(=O)O)CCN(CC(=O)O)CC2)CSSC[C@@H](C(=O)N[C@H](Cc2ccc(O)cc2)C(N)=O)NC1=O [8a, DOTA-Lys(4-(p-iodophenyl)butyryl)-Phe(4-Cl)-c[D-Cys-Aph(Hor)-D-Aph(Cbm)-Lys-Thr-Cys]-D-Tyr-NH2] ({DOTA}-K(Butanoyl(4-(4-I-phenyl)))[Phe(4-Cl)][dC][Phe(4-NH2)](Dihydroorotyl(S))[dPhe(4-NHCONH2)]KTC[dY]-NH2; disulfide 3-8)
[1]
  IC50: 80 ± 0.43 nM

## COc1ccc(CCCC(=O)NCCCC[C@H](NC(=O)CN2CCN(CC(=O)O)CCN(CC(=O)O)CCN(CC(=O)O)CC2)C(=O)N[C@@H](Cc2ccc(Cl)cc2)C(=O)N[C@@H]2CSSC[C@@H](C(=O)N[C@H](Cc3ccc(O)cc3)C(N)=O)NC(=O)[C@H]([C@@H](C)O)NC(=O)[C@H](CCCCN)NC(=O)[C@@H](Cc3ccc(NC(N)=O)cc3)NC(=O)[C@H](Cc3ccc(NC(=O)[C@@H]4CC(=O)NC(=O)N4)cc3)NC2=O)cc1 [[^177Lu]Lu-8b, metal not drawn] ({DOTA}-K(Butanoyl(4-(4-MeO-phenyl)))[Phe(4-Cl)][dC][Phe(4-NH2)](Dihydroorotyl(S))[dPhe(4-NHCONH2)]KTC[dY]-NH2; disulfide 3-8)
Stability in PBS; 1 h
  Stability in PBS (%) 1 h: 97.1%
Stability in PBS; 4 h
  Stability in PBS (%) 4 h: 96.4%
Stability in PBS; 24 h
  Stability in PBS (%) 24 h: 95.4%
Human albumin
  Protein-Bound Fraction (%): 56.3 ± 1.4%
Stability in mouse serum; 1 h
  remaining at 1 h: 98%
Stability in mouse serum; 4 h
  remaining at 4 h: 97.9%
Stability in mouse serum; 24 h
  remaining at 24 h: 98.5%
[2]
  logD: -2.07 ± 0.02
In vivo SPECT/CT imaging
  tissue uptake per volume at 4 h: 2.7 ± 0.2 %ID/mL
  tissue uptake per volume at 24 h: 1 ± 0.1 %ID/mL
  tissue uptake per volume at 48 h: 0.8 ± 0.1 %ID/mL
  tissue uptake per volume at 72 h: 0.6 ± 0.1 %ID/mL
[3]; 4 h post-injection
  SPECT quantification, kidneys (K), 4 h: 14.8 ± 1.2 % ID/mL
[3]; 24 h post-injection
  SPECT quantification, kidneys (K), 24 h: 7.5 ± 0.4 % ID/mL
[3]; 48 h post-injection
  SPECT quantification, kidneys (K), 48 h: 4.3 ± 0.3 % ID/mL
[3]; 72 h post-injection
  SPECT quantification, kidneys (K), 72 h: 3.1 ± 0.5 % ID/mL

## COc1ccc(CCCC(=O)NCCCC[C@H](NC(=O)CN2CCN(CC(=O)O)CCN(CC(=O)O)CCN(CC(=O)O)CC2)C(=O)N[C@@H](Cc2ccc(Cl)cc2)C(=O)N[C@@H]2CSSC[C@@H](C(=O)N[C@H](Cc3ccc(O)cc3)C(N)=O)NC(=O)[C@H]([C@@H](C)O)NC(=O)[C@H](CCCCN)NC(=O)[C@@H](Cc3ccc(NC(N)=O)cc3)NC(=O)[C@H](Cc3ccc(NC(=O)[C@@H]4CC(=O)NC(=O)N4)cc3)NC2=O)cc1 [8b, DOTA-Lys(4-(p-methoxyphenyl)butyryl)-Phe(4-Cl)-c[D-Cys-Aph(Hor)-D-Aph(Cbm)-Lys-Thr-Cys]-D-Tyr-NH2] ({DOTA}-K(Butanoyl(4-(4-MeO-phenyl)))[Phe(4-Cl)][dC][Phe(4-NH2)](Dihydroorotyl(S))[dPhe(4-NHCONH2)]KTC[dY]-NH2; disulfide 3-8)
[1]
  IC50: 130 ± 0.3 nM
